Experiments:
Assay type in all cases: functional
Pseudomonas aeruginosa [1] = experiment: Antibacterial activity against Pseudomonas aeruginosa assessed as inhibition zone at 75 ug/ml by diffusion method; conditions: read-out: IZ
[2] = test system: Mycobacterium tuberculosis; experiment: Antimycobacterial activity against Mycobacterium tuberculosis H37Rv assessed as bacterial growth inhibition by microplate Alamar blue assay
Escherichia coli [3] = experiment: Antibacterial activity against Escherichia coli assessed as inhibition zone at 75 ug/ml by diffusion method; conditions: read-out: IZ
Staphylococcus aureus [4] = experiment: Antibacterial activity against Staphylococcus aureus assessed as inhibition zone at 50 ug/ml by diffusion method; conditions: read-out: IZ
Staphylococcus aureus [5] = experiment: Antibacterial activity against Staphylococcus aureus assessed as inhibition zone at 75 ug/ml by diffusion method; conditions: read-out: IZ
Staphylococcus aureus [6] = experiment: Antibacterial activity against Staphylococcus aureus assessed as inhibition zone at 25 ug/ml by diffusion method; conditions: read-out: IZ
Escherichia coli [7] = experiment: Antibacterial activity against Escherichia coli assessed as inhibition zone at 50 ug/ml by diffusion method; conditions: read-out: IZ
Pseudomonas aeruginosa [8] = experiment: Antibacterial activity against Pseudomonas aeruginosa assessed as inhibition zone at 50 ug/ml by diffusion method; conditions: read-out: IZ
Escherichia coli [9] = experiment: Antibacterial activity against Escherichia coli assessed as inhibition zone at 25 ug/ml by diffusion method; conditions: read-out: IZ

Cc1ccc(C(=O)N2CCN(C(=O)Cc3c[nH]c4ccccc34)CC2)cc1
zone of inhibition at 75 µg/mL (Pseudomonas aeruginosa [1]): 10 mm | MIC [2]: > 120 µM | zone of inhibition at 75 µg/mL (Escherichia coli [3]): 18 mm | zone of inhibition at 50 µg/mL (Staphylococcus aureus [4]): 13 mm | zone of inhibition at 75 µg/mL (Staphylococcus aureus [5]): 15 mm | zone of inhibition at 25 µg/mL (Staphylococcus aureus [6]): 12 mm | zone of inhibition at 50 µg/mL (Escherichia coli [7]): 12 mm

O=C(Cc1cn(Cc2ccc(F)cc2)c2ccccc12)N1CCN(C(=O)c2ccc(Cl)cc2)CC1
zone of inhibition at 75 µg/mL (Pseudomonas aeruginosa [1]): 13 mm | MIC [2]: 25.5 µM | zone of inhibition at 75 µg/mL (Escherichia coli [3]): 15 mm | zone of inhibition at 50 µg/mL (Staphylococcus aureus [4]): 18 mm | zone of inhibition at 75 µg/mL (Staphylococcus aureus [5]): 23 mm | zone of inhibition at 25 µg/mL (Staphylococcus aureus [6]): 13 mm | zone of inhibition at 50 µg/mL (Escherichia coli [7]): 13 mm | zone of inhibition at 50 µg/mL (Pseudomonas aeruginosa [8]): 10 mm

O=C(CCc1cn(Cc2cn(Cc3ccc(F)cc3)nn2)c2ccccc12)N1CCN(S(=O)(=O)c2ccc([N+](=O)[O-])cc2)CC1
zone of inhibition at 75 µg/mL (Pseudomonas aeruginosa [1]): 12 mm | zone of inhibition at 25 µg/mL (Escherichia coli [9]): 15 mm | MIC [2]: 39.6 µM | zone of inhibition at 75 µg/mL (Escherichia coli [3]): 20 mm | zone of inhibition at 50 µg/mL (Staphylococcus aureus [4]): 12 mm | zone of inhibition at 75 µg/mL (Staphylococcus aureus [5]): 20 mm | zone of inhibition at 25 µg/mL (Staphylococcus aureus [6]): 6 mm | zone of inhibition at 50 µg/mL (Escherichia coli [7]): 18 mm | zone of inhibition at 50 µg/mL (Pseudomonas aeruginosa [8]): 10 mm

O=C(CCc1cn(Cc2cn(Cc3ccc(F)cc3)nn2)c2ccccc12)N1CCN(S(=O)(=O)c2ccccc2C(F)(F)F)CC1
zone of inhibition at 75 µg/mL (Pseudomonas aeruginosa [1]): 12 mm | zone of inhibition at 25 µg/mL (Escherichia coli [9]): 15 mm | MIC [2]: 38.2 µM | zone of inhibition at 75 µg/mL (Escherichia coli [3]): 20 mm | zone of inhibition at 50 µg/mL (Staphylococcus aureus [4]): 12 mm | zone of inhibition at 75 µg/mL (Staphylococcus aureus [5]): 20 mm | zone of inhibition at 25 µg/mL (Staphylococcus aureus [6]): 10 mm | zone of inhibition at 50 µg/mL (Escherichia coli [7]): 22 mm | zone of inhibition at 50 µg/mL (Pseudomonas aeruginosa [8]): 10 mm

Cc1ccc(S(=O)(=O)N2CCN(C(=O)CCc3cn(Cc4ccc(F)cc4)c4ccccc34)CC2)cc1
zone of inhibition at 75 µg/mL (Pseudomonas aeruginosa [1]): 10 mm | MIC [2]: 48.1 µM | zone of inhibition at 75 µg/mL (Escherichia coli [3]): 18 mm | zone of inhibition at 50 µg/mL (Staphylococcus aureus [4]): 18 mm | zone of inhibition at 75 µg/mL (Staphylococcus aureus [5]): 23 mm | zone of inhibition at 25 µg/mL (Staphylococcus aureus [6]): 15 mm | zone of inhibition at 50 µg/mL (Escherichia coli [7]): 15 mm

O=C(CCc1cn(Cc2cn(Cc3ccc(F)cc3)nn2)c2ccccc12)N1CCN(C(=O)c2ccc([N+](=O)[O-])cc2)CC1
zone of inhibition at 75 µg/mL (Pseudomonas aeruginosa [1]): 13 mm | zone of inhibition at 25 µg/mL (Escherichia coli [9]): 15 mm | MIC [2]: 21 µM | zone of inhibition at 75 µg/mL (Escherichia coli [3]): 20 mm | zone of inhibition at 50 µg/mL (Staphylococcus aureus [4]): 13 mm | zone of inhibition at 75 µg/mL (Staphylococcus aureus [5]): 20 mm | zone of inhibition at 25 µg/mL (Staphylococcus aureus [6]): 10 mm | zone of inhibition at 50 µg/mL (Escherichia coli [7]): 19 mm

O=C(CCc1c[nH]c2ccccc12)N1CCN(S(=O)(=O)c2ccccc2)CC1
zone of inhibition at 75 µg/mL (Pseudomonas aeruginosa [1]): 15 mm | zone of inhibition at 25 µg/mL (Escherichia coli [9]): 10 mm | MIC [2]: > 120 µM | zone of inhibition at 75 µg/mL (Escherichia coli [3]): 15 mm | zone of inhibition at 50 µg/mL (Staphylococcus aureus [4]): 15 mm | zone of inhibition at 75 µg/mL (Staphylococcus aureus [5]): 20 mm | zone of inhibition at 25 µg/mL (Staphylococcus aureus [6]): 12 mm | zone of inhibition at 50 µg/mL (Escherichia coli [7]): 12 mm | zone of inhibition at 50 µg/mL (Pseudomonas aeruginosa [8]): 10 mm

O=C(Cc1c[nH]c2ccccc12)N1CCN(S(=O)(=O)c2ccc(F)cc2)CC1
zone of inhibition at 75 µg/mL (Pseudomonas aeruginosa [1]): 13 mm | MIC [2]: > 120 µM | zone of inhibition at 75 µg/mL (Escherichia coli [3]): 18 mm | zone of inhibition at 50 µg/mL (Staphylococcus aureus [4]): 15 mm | zone of inhibition at 75 µg/mL (Staphylococcus aureus [5]): 20 mm | zone of inhibition at 25 µg/mL (Staphylococcus aureus [6]): 13 mm | zone of inhibition at 50 µg/mL (Escherichia coli [7]): 15 mm | zone of inhibition at 50 µg/mL (Pseudomonas aeruginosa [8]): 10 mm

Cc1ccc(C(=O)N2CCN(C(=O)CCc3c[nH]c4ccccc34)CC2)cc1
zone of inhibition at 75 µg/mL (Pseudomonas aeruginosa [1]): 15 mm | MIC [2]: 66.6 µM | zone of inhibition at 75 µg/mL (Escherichia coli [3]): 15 mm | zone of inhibition at 50 µg/mL (Staphylococcus aureus [4]): 13 mm | zone of inhibition at 75 µg/mL (Staphylococcus aureus [5]): 15 mm | zone of inhibition at 25 µg/mL (Staphylococcus aureus [6]): 10 mm | zone of inhibition at 50 µg/mL (Escherichia coli [7]): 13 mm | zone of inhibition at 50 µg/mL (Pseudomonas aeruginosa [8]): 10 mm

O=C(CCc1c[nH]c2ccccc12)N1CCN(S(=O)(=O)c2ccc(Cl)cc2)CC1
zone of inhibition at 75 µg/mL (Pseudomonas aeruginosa [1]): 10 mm | MIC [2]: 57.8 µM | zone of inhibition at 75 µg/mL (Escherichia coli [3]): 10 mm | zone of inhibition at 50 µg/mL (Staphylococcus aureus [4]): 10 mm | zone of inhibition at 75 µg/mL (Staphylococcus aureus [5]): 13 mm | zone of inhibition at 50 µg/mL (Escherichia coli [7]): 8 mm

O=C(Cc1c[nH]c2ccccc12)N1CCN(S(=O)(=O)c2ccc(Cl)cc2)CC1
zone of inhibition at 75 µg/mL (Pseudomonas aeruginosa [1]): 13 mm | zone of inhibition at 25 µg/mL (Escherichia coli [9]): 6 mm | MIC [2]: 59.8 µM | zone of inhibition at 75 µg/mL (Escherichia coli [3]): 11 mm | zone of inhibition at 50 µg/mL (Staphylococcus aureus [4]): 12 mm | zone of inhibition at 75 µg/mL (Staphylococcus aureus [5]): 15 mm | zone of inhibition at 25 µg/mL (Staphylococcus aureus [6]): 10 mm | zone of inhibition at 50 µg/mL (Escherichia coli [7]): 9 mm | zone of inhibition at 50 µg/mL (Pseudomonas aeruginosa [8]): 10 mm

O=C(Cc1cn(Cc2ccc(F)cc2)c2ccccc12)N1CCN(S(=O)(=O)c2ccc(F)cc2)CC1
zone of inhibition at 75 µg/mL (Pseudomonas aeruginosa [1]): 18 mm | MIC [2]: 24.5 µM | zone of inhibition at 75 µg/mL (Escherichia coli [3]): 18 mm | zone of inhibition at 50 µg/mL (Staphylococcus aureus [4]): 18 mm | zone of inhibition at 75 µg/mL (Staphylococcus aureus [5]): 20 mm | zone of inhibition at 25 µg/mL (Staphylococcus aureus [6]): 15 mm | zone of inhibition at 50 µg/mL (Escherichia coli [7]): 13 mm

O=C(CCc1cn(Cc2ccc(F)cc2)c2ccccc12)N1CCN(C(=O)c2ccccc2)CC1
zone of inhibition at 75 µg/mL (Pseudomonas aeruginosa [1]): 13 mm | MIC [2]: 53.2 µM | zone of inhibition at 75 µg/mL (Escherichia coli [3]): 15 mm | zone of inhibition at 50 µg/mL (Staphylococcus aureus [4]): 18 mm | zone of inhibition at 75 µg/mL (Staphylococcus aureus [5]): 23 mm | zone of inhibition at 25 µg/mL (Staphylococcus aureus [6]): 15 mm | zone of inhibition at 50 µg/mL (Escherichia coli [7]): 13 mm | zone of inhibition at 50 µg/mL (Pseudomonas aeruginosa [8]): 10 mm

COc1ccc(S(=O)(=O)N2CCN(C(=O)CCc3cn(Cc4cn(Cc5ccc(F)cc5)nn4)c4ccccc34)CC2)cc1
zone of inhibition at 75 µg/mL (Pseudomonas aeruginosa [1]): 13 mm | MIC [2]: 20.3 µM | zone of inhibition at 75 µg/mL (Escherichia coli [3]): 18 mm | zone of inhibition at 50 µg/mL (Staphylococcus aureus [4]): 15 mm | zone of inhibition at 75 µg/mL (Staphylococcus aureus [5]): 18 mm | zone of inhibition at 25 µg/mL (Staphylococcus aureus [6]): 10 mm | zone of inhibition at 50 µg/mL (Escherichia coli [7]): 15 mm | zone of inhibition at 50 µg/mL (Pseudomonas aeruginosa [8]): 10 mm

Cc1ccc(S(=O)(=O)N2CCN(C(=O)Cc3cn(Cc4ccc(F)cc4)c4ccccc34)CC2)cc1
zone of inhibition at 75 µg/mL (Pseudomonas aeruginosa [1]): 13 mm | MIC [2]: 49.4 µM | zone of inhibition at 75 µg/mL (Escherichia coli [3]): 18 mm | zone of inhibition at 50 µg/mL (Staphylococcus aureus [4]): 18 mm | zone of inhibition at 75 µg/mL (Staphylococcus aureus [5]): 22 mm | zone of inhibition at 25 µg/mL (Staphylococcus aureus [6]): 13 mm | zone of inhibition at 50 µg/mL (Escherichia coli [7]): 15 mm

— ChEMBL document CHEMBL5523679, “Discovery of 1,2,3-triazole incorporated indole-piperazines as potent antitubercular agents: Design, synthesis, in vitro biological evaluation, molecular docking and ADME studies” (Bioorg Med Chem, 2024)
